Source: patent publication US20180267043A1, “USE OF BIOMARKERS FOR PREDICTING CLINICAL SENSITIVITY TO CANCER TREATMENT” (CELGENE CORPORATION, priority 2014, published 2018)

Assays:
RPMI-8226 = test: CellTiter-Glo cell viability assay after GSPT1 knockdown, RPMI-8226; assay type: cell-based, human; settings: RPMI-8226 expressing shGSPT1-1 or shGSPT1-3 vs parental or control shRNA, 0.01 nM to 0.1 μM, day 9
Procedure: The effect of depletion of GSPT1 on the anti-proliferative effect of Compound C was determined in human multiple myeloma (MM) cell lines DF15 and RPMI-8226. Treatment compounds were titrated from 0.01 nM to 0.1 μM. Cell proliferation was measured by the CellTiter-Glo cell viability assay (RLU-Relative Luminescent Unit) at day 9 after GSPT1 knockdown by shGSPT1-1 or shGSPT1-3.

GSPT1 = biological target: T1, GSPT1 (Homo sapiens, UniProt P15170); test: GSPT1 expression level in HEK 293FT cells after compound treatment; assay type: cell-based; settings: CRBN+/+ cells, 10 hours, 100 nM or 1000 nM, compared to CRBN−/− cells
T1 construct: endogenous in cells; host or cells: HEK 293FT cells (CRBN+/+)
T1 sequence (P15170 whole entry): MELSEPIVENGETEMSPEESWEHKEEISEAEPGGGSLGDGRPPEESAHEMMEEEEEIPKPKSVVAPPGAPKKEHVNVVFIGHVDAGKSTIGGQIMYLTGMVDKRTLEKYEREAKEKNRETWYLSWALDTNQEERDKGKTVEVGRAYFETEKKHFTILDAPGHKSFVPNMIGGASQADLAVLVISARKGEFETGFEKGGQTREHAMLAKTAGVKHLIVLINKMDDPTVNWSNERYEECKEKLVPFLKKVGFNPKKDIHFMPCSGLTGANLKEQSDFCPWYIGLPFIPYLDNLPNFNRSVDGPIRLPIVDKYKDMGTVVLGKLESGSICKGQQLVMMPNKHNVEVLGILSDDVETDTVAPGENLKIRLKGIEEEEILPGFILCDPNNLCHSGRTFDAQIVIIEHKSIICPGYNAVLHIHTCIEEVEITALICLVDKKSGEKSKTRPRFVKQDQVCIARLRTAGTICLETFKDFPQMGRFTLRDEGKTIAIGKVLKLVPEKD
T1 sequence (Q96SW2 whole entry, further chain): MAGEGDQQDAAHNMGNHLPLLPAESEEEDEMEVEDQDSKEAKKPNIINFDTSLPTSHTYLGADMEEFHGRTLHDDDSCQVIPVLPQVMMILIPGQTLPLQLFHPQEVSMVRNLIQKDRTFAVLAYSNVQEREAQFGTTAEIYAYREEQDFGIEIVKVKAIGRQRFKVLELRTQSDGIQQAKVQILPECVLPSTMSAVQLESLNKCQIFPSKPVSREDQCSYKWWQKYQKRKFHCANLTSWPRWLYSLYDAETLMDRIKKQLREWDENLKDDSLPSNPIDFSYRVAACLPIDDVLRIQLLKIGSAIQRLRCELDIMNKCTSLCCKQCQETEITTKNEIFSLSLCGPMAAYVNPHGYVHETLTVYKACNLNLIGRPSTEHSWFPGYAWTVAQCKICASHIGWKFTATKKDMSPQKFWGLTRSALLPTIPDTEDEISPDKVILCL
T1 sequence (Q16531 whole entry partner): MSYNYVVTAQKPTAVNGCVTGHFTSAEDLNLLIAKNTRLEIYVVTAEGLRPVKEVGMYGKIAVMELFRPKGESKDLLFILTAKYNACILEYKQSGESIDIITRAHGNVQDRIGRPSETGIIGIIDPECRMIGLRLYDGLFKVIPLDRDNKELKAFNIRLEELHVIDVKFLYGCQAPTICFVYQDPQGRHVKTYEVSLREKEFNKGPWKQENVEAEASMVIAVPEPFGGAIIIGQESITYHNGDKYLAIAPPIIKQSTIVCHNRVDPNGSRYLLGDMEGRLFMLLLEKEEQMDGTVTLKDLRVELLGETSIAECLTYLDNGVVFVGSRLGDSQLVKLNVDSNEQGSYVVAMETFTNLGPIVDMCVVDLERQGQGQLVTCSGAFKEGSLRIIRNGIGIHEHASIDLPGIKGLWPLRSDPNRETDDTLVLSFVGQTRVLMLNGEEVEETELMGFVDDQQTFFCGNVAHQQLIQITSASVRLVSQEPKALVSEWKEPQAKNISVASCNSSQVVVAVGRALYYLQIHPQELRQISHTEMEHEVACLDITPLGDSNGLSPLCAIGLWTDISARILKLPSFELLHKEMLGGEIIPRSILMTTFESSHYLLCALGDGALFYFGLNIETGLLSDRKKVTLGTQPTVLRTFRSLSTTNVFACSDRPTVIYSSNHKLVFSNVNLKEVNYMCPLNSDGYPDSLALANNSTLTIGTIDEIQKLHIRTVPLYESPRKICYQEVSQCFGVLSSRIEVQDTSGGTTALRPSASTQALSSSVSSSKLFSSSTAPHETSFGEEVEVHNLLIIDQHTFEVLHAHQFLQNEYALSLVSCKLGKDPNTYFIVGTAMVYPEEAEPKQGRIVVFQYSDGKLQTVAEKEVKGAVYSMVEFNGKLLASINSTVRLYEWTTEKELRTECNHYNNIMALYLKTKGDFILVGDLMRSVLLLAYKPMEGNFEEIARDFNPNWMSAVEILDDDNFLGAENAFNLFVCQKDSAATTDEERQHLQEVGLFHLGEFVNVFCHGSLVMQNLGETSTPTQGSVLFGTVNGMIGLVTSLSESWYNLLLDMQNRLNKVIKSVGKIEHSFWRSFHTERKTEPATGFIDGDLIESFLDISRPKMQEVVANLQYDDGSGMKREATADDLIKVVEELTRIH

XBP1 and ATF6 pathways [1] = test: RNA level of XBP1 and ATF6 pathway components in KG1 cells; assay type: cell-based, human; settings: KG1, 20 nM, 2, 4, or 6 hours
Procedure: The mechanism of Compound C-activated XBP1 and ATF6 pathways of UPR was studied in KG1 cells. Cells were treated with DMSO or 20 nM Compound C for 2, 4, or 6 hours. The RNA level of variant cellular components along the XBP1 and ATF6 pathways was measured and normalized with GAPDH.

[2] = tested on: Aiolos, CK1a, GSPT1 in OCI-LY10; test: Western blot analysis in lymphoma cell line OCI-LY10; assay type: cell-based; settings: OCI-LY10, 100 μM Compound C, 6 hours
Description: Cells were harvested with RIPA buffer, and proteins from cell lysates were separated by 10% sodium dodecyl sulfate polyacrylamide (SDS-PAGE) gel electrophoresis (Bio-Rad), then transferred to PVDF membranes (Invitrogen). Immunoblots were probed with antibodies recognizing Aiolos (9-9-7; Celgene), CK1a (Abcam), GSPT1 (Sigma), ZFP91 (LSBio) and β-actin (Li-Cor). Signals were detected with a Li-Cor Odyssey imager.

PERK/EIF2a/ATF4 pathway = test: mRNA level of PERK/EIF2a/ATF4 pathway components in KG1 cells; assay type: cell-based, human; settings: KG1 cells (FIG. 18C)
[3] = tested on: CRBN and its substrates IKZF1, GSPT1, GSPT2; test: In vitro binding assay, anti-HA immunoprecipitation and immunoblotting; settings: cell lysates
Procedure: CRBN−/− cells expressing HA-tagged substrates were lysed and incubated with anti-HA antibody to pull down substrates. CRBN positive cells expressing shGSPT1 that specifically knocks down GSPT1 were lysed, then mixed with the substrates obtained from CRBN−/− cells. The mixture was incubated with DMSO alone or compounds. Immunoprecipitation using anti-HA antibody was performed. Then, immunoblotting was performed using anti-CRBN or anti-HA antibodies.

XBP1 and ATF6 pathways [4] = test: RNA level of XBP1 and ATF6 pathway components in 293FT HEK cells; assay type: cell-based, human; settings: 1 nM or 10 nM, 24 hours
Procedure: The mechanism of Compound C-activated XBP1 and ATF6 pathways was studied in 293FT HEK cells. Parental cells, CRBN−/− cells, cells expressing control shRNA, or cells expressing GSPT1-specific shRNA were treated with DMSO, 1 nM, or 10 nM Compound C. The RNA level of variant cellular components along the XBP1 and ATF6 pathways was measured and normalized with GAPDH at 24 hours after treatment.

[5] = 293FT parental and control shRNA cells

Cc1ccc(NC(=O)NCc2ccc3c(c2)CN(C2CCC(=O)NC2=O)C3=O)cc1Cl (stereo not drawn) [Compound C, 1-(3-chloro-4-methylphenyl)-3-((2-(2,6-dioxopiperidin-3-yl)-1-oxoisoindolin-5-yl)methyl)urea]
Anti-proliferative effect (RPMI-8226): increased anti-proliferative effect
GSPT1 expression level (GSPT1): GSPT1 is degraded in CRBN+/+ cells
RNA level of ATF6 pathway components (XBP1) (XBP1 and ATF6 pathways [1]): induces expression
RNA level of XBP1 pathway components (SEC24D, DNAJB9, EDEM1, XBP1) (XBP1 and ATF6 pathways [1]): induces expression
Aiolos and CK1a protein levels [2]: also reduce
GSPT1 protein level [2]: reduces
mRNA level of ATF4, ATF3, DDIT3, PPP1R15A, GADD45A, TNFRSF1B, and TNFRSF10B (PERK/EIF2a/ATF4 pathway): Compound C-induced expression of ATF4, ATF3, DDIT3, PPP1R15A, GADD45A, TNFRSF1B, and TNFRSF10B
Interaction between CRBN and GSPT1 or GSPT2 [3]: promotes the interaction
Interaction between CRBN and IKZF1 [3]: promotes the interaction
RNA level of ATF6 pathway components (XBP1, EDEM1, EDEM2, HYOU1, HSPA5) (XBP1 and ATF6 pathways [4]; [5]): induces expression
RNA level of XBP1 pathway components (SEC24D, DNAJB9, DNAJC6, XBP1, EDEM1, EDEM2, HYOU1) (XBP1 and ATF6 pathways [4]; [5]): induces expression
RNA level of XBP1 and ATF6 pathway components (XBP1 and ATF6 pathways [4]; cells with GSPT1 knockdown): This induction effect increases
